Each structure is given as a SMILES string.

Consider 39 molecules from patent publication US8415272B2, “Quinoline derivatives and their use as fungicides” (Syngenta Crop Protection LLC, priority 2008, dated 2013).

For one assay, the system named is Septoria tritici. In words: Growth inhibition in nutrient broth, Septoria tritici (leaf blotch), photometric. Conditions: Zymoseptoria tritici, PDB broth, 24 C, 72 hrs, read-out: control of fungal infection, Septoria tritici. The assay is classed as cell-based.
A further assay relates to Plasmopara viticola. Description: Leaf disk assay, Plasmopara viticola (downy mildew of grapevine), preventive. It is filed as in vivo. The conditions noted are these: foliar, 168 h, grapevine leaf disks, assessed seven days after inoculation, read-out: control of fungal infection, Plasmopara viticola.
Assay [1] concerns Erysiphe graminis f.sp. tritici. Description: Leaf disk assay, Erysiphe graminis f.sp. tritici (wheat powdery mildew), preventive. The assay is classed as in vivo. Conditions: Blumeria graminis, foliar, 96 h, wheat leaf segments, assessed four days after inoculation, read-out: control of fungal infection, Erysiphe graminis f.sp. tritici. The protocol:
The compounds were tested in a leaf disk assay, with methods described below. The test compounds were dissolved in DMSO and diluted into water to 200 ppm. In the case of the test on Pythium ultimum, they were dissolved in DMSO and diluted into water to 20 […] graminis f.sp. tritici (wheat powdery mildew): Wheat leaf segments were placed on agar in a 24-well plate and sprayed with a solution of the test compound. After allowing to dry completely, for between 12 and 24 hours, the leaf disks were inoculated with a spore suspension of the fungus. After appropriate incubation the activity of a compound was assessed four days after inoculation as preventive fungicidal activity.

The subject of a further assay is Phytophthora infestans. In words: whole plant or invertebrate. Conditions: in Solanum lycopersicum, foliar, 96 h, read-out: control of fungal infection, Phytophthora infestans. The assay is classed as in vivo.
Another assay concerns Pythium ultimum. Description: Growth inhibition in potato dextrose broth, Pythium ultimum (damping off), photometric. It is filed as cell-based. The conditions noted are these: Globisporangium ultimum, 24° C., 48 hours, read-out: control of fungal infection, Pythium ultimum. The method, then:
The compounds were tested in a leaf disk assay, with methods described below. The test compounds were dissolved in DMSO and diluted into water to 200 ppm. In the case of the test on Pythium ultimum, they were dissolved in DMSO and diluted into water to 20 ppm. Pythium ultimum (Damping off): Mycelial fragments of the fungus, prepared from a fresh liquid culture, were mixed into potato dextrose broth. A solution of the test compound in dimethyl sulphoxide was diluted with water to 20 ppm then placed into a 96-well microtiter plate and the nutrient broth containing the fungal spores was added. The test plate was incubated at 24° C. and the inhibition of growth was determined photometrically after 48 hours.

Another assay has as its system Septoria nodorum. In words: Leaf disk assay, Septoria nodorum (wheat glume blotch), preventive. It is filed as in vivo. Conditions: Parastagonospora nodorum, foliar, 96 h, wheat leaf segments, assessed four days after inoculation, read-out: control of fungal infection, Septoria nodorum.

Consider `CSC(Oc1cc2cc(C#C[Si](C)(C)C)cnc2cc1F)C(=O)NC(C)(C)C` (centres unmarked) [Example 101], for which, in the assay with Septoria tritici, the inhibition of growth at 60 ppm was at least 60%.
Turning to `C#Cc1cnc2c(F)c(F)c(OC(SC)C(=O)NC(C)(C#N)COC)cc2c1` (centres unmarked) [Example 216], the pest or weed control at 200 ppm (in the assay with Plasmopara viticola; in assay [1]) was at least 60% throughout. In addition, the inhibition of growth at 60 ppm in the assay on Septoria tritici was at least 60%.
`C#Cc1cnc2ccc(OC(SC)C(=O)NC(C)(C#C)C=O)cc2c1` (centres unmarked) [Example 161]: the pest or weed control at 200 ppm with Phytophthora infestans and in the assay with Plasmopara viticola was at least 60% each time. For the same molecule, the inhibition of growth at 20 ppm with Pythium ultimum is at least 60%.
For `CC#CC(C)(C)NC(=O)C(Oc1ccc2ncc(C#CCO)cc2c1)SC` (centres unmarked) [Example 50], the pest or weed control at 200 ppm in the assay on Phytophthora infestans and in the assay on Plasmopara viticola was at least 60% throughout. The inhibition of growth at 20 ppm in the assay on Pythium ultimum is at least 60%.
Consider `COCC(C)(COC)NC(=O)C(Oc1ccc2ncc(C#C[Si](C)(C)C)cc2c1)SC` (centres unmarked) [Example 81], for which the pest or weed control at 200 ppm in the assay with Phytophthora infestans and with Septoria nodorum was at least 60% throughout. Also, the inhibition of growth at 60 ppm with Septoria tritici is at least 60%.
As to `COCC#Cc1cnc2c(C)cc(OC(SC)C(=O)NC(C)(C)C)cc2c1` (centres unmarked) [Example 32], the inhibition of growth at 60 ppm in the assay on Septoria tritici was at least 60%.
Consider `C#CCOCC1(NC(=O)C(Oc2ccc3ncc(C#C)cc3c2)SC)CCC1` (centres unmarked) [Example 152], for which the pest or weed control at 200 ppm (with Phytophthora infestans; in the assay on Plasmopara viticola; in assay [1]; with Septoria nodorum) was at least 60% each time. The inhibition of growth at 60 ppm with Septoria tritici was at least 60%.
As to `COCC(C)(C#N)NC(=O)C(Oc1cc2cc(C#C[Si](C)(C)C)cnc2cc1F)SC` (centres unmarked) [Example 5], the pest or weed control at 200 ppm (with Phytophthora infestans; in the assay with Plasmopara viticola; in assay [1]) was at least 60% each time. In the assay with Septoria tritici, the inhibition of growth at 60 ppm is at least 60%.
For the molecule `COCCC#CC(C)(C)NC(=O)C(Oc1ccc2ncc(C#C[Si](C)(C)C)cc2c1)SC` (centres unmarked) [Example 100], the pest or weed control at 200 ppm (with Phytophthora infestans; in the assay on Plasmopara viticola; in assay [1]) was at least 60% in each case. The inhibition of growth at 60 ppm in the assay with Septoria tritici was at least 60%. In addition, the inhibition of growth at 20 ppm in the assay on Pythium ultimum was at least 60%.
Take `CC#CC(C)(C)NC(=O)C(Oc1cc(C)c2ncc(C#CCOC)cc2c1)SC` (centres unmarked) [Example 35]: the pest or weed control at 200 ppm in the assay on Plasmopara viticola was at least 60%. Further, the inhibition of growth at 60 ppm in the assay with Septoria tritici is at least 60%.
Regarding `CCOCC(C)(C)NC(=O)C(Oc1cc(C)c2ncc(C#C[Si](C)(C)C)cc2c1)SC` (centres unmarked) [Example 89], in the assay on Septoria tritici, the inhibition of growth at 60 ppm is at least 60%.
`C#Cc1cnc2ccc(OC(SC)C(=O)NC(C)(C#N)CF)cc2c1` (centres unmarked) [Example 92]: the inhibition of growth at 20 ppm in the assay on Pythium ultimum is at least 60%.
Consider `COCC(C)(C#N)NC(=O)C(Oc1ccc2ncc(C#CCO)cc2c1)SC` (centres unmarked) [Example 52], for which the pest or weed control at 200 ppm in the assay on Phytophthora infestans is at least 60%. Further, the inhibition of growth at 20 ppm in the assay on Pythium ultimum was at least 60%.
For `C#CC(C)(C)NC(=O)C(Oc1cc(C)c2ncc(C#CC)cc2c1)SC` (centres unmarked) [Example 41], the inhibition of growth at 60 ppm in the assay with Septoria tritici is at least 60%.
In the case of `CSC(Oc1cc(Cl)c2ncc(C#C[Si](C)(C)C)cc2c1)C(=O)NC(C)(C)C#CCCCCl` (centres unmarked) [Example 120], the inhibition of growth at 60 ppm in the assay with Septoria tritici was at least 60%.
Regarding `COCC(C)(C#N)NC(=O)C(Oc1cc(C)c2ncc(C#CCO)cc2c1)SC` (centres unmarked) [Example 27], the pest or weed control at 200 ppm (in the assay with Plasmopara viticola; in assay [1]) was at least 60% in each case. The inhibition of growth at 20 ppm in the assay on Pythium ultimum was at least 60%.
As to `COCC#Cc1cnc2c(C)cc(OC(SC)C(=O)NC(C)(C#N)COC)cc2c1` (centres unmarked) [Example 33], in the assay with Phytophthora infestans, the pest or weed control at 200 ppm was at least 60%. Further, the inhibition of growth at 60 ppm in the assay on Septoria tritici is at least 60%. For the same molecule, in the assay with Pythium ultimum, the inhibition of growth at 20 ppm was at least 60%.
With `COCC#Cc1cnc2ccc(OC(SC)C(=O)NC(C)(C#N)COC)cc2c1` (centres unmarked) [Example 43], the pest or weed control at 200 ppm (in the assay with Phytophthora infestans; in assay [1]) was at least 60% in each case. Further, the inhibition of growth at 20 ppm in the assay on Pythium ultimum is at least 60%.
In the case of `CCC#CC(C)(C)NC(=O)C(Oc1ccc2ncc(C#C[Si](C)(C)C)cc2c1)SC` (centres unmarked) [Example 116], the pest or weed control at 200 ppm (in the assay on Phytophthora infestans; in the assay on Plasmopara viticola; in assay [1]) was at least 60% in each case. In the assay with Septoria tritici, the inhibition of growth at 60 ppm was at least 60%.
As for `C#CC(C)(C)NC(=O)C(Oc1ccc2ncc(C#CCO)cc2c1)SC` (centres unmarked) [Example 51], the pest or weed control at 200 ppm with Phytophthora infestans and in the assay with Plasmopara viticola was at least 60% in each case. Also, in the assay on Pythium ultimum, the inhibition of growth at 20 ppm is at least 60%.
In the case of `COCC#CC(C)(C)NC(=O)C(Oc1cc(Cl)c2ncc(C#CCF)cc2c1)SC` (centres unmarked) [Example 227], the pest or weed control at 200 ppm (in the assay with Phytophthora infestans; in the assay on Plasmopara viticola; in assay [1]) was at least 60% in each case.
Take `C#Cc1cnc2ccc(OC(SC)C(=O)NC3(C)CSC3)cc2c1` (centres unmarked) [Example 224]: the inhibition of growth at 60 ppm in the assay with Septoria tritici was at least 60%. Further, the inhibition of growth at 20 ppm in the assay on Pythium ultimum is at least 60%.
For the molecule `CCC#CC(C)(C)NC(=O)C(Oc1cc(Cl)c2ncc(C#C[Si](C)(C)C)cc2c1)SC` (centres unmarked) [Example 119], in the assay with Plasmopara viticola, the pest or weed control at 200 ppm was at least 60%. Moreover, the inhibition of growth at 60 ppm in the assay on Septoria tritici was at least 60%.
Turning to `CC#Cc1cnc2c(C)cc(OC(SC)C(=O)NC(C)(C)C)cc2c1` (centres unmarked) [Example 37], in the assay with Septoria tritici, the inhibition of growth at 60 ppm is at least 60%.
For `CCC(C)(C)NC(=O)C(Oc1ccc2ncc(C#C[Si](C)(C)C)cc2c1)SC` (centres unmarked) [Example 91], the pest or weed control at 200 ppm (in the assay with Plasmopara viticola; in assay [1]) was at least 60% in each case. Further, in the assay on Septoria tritici, the inhibition of growth at 60 ppm was at least 60%.
As for `CC#Cc1cnc2c(C)cc(OC(SC)C(=O)NC(C)(C)C#CC)cc2c1` (centres unmarked) [Example 40], in the assay on Septoria tritici, the inhibition of growth at 60 ppm is at least 60%.
Consider `C#Cc1cnc2ccc(OC(SC)C(=O)N(C)C3(CO)CCC3)cc2c1` (centres unmarked) [Example 154], for which the inhibition of growth at 20 ppm in the assay with Pythium ultimum was at least 60%.
Consider `CC#Cc1cnc2c(C)cc(OC(SC)C(=O)NC(C)(C#N)COC)cc2c1` (centres unmarked) [Example 38], for which the pest or weed control at 200 ppm in assay [1] is at least 60%. Further, in the assay with Septoria tritici, the inhibition of growth at 60 ppm was at least 60%. In the assay on Pythium ultimum, the inhibition of growth at 20 ppm was at least 60%.
As to `C#CC(C)(C)NC(=O)C(Oc1ccc2ncc(C#CCOC)cc2c1)SC` (centres unmarked) [Example 46], the pest or weed control at 200 ppm (in the assay with Phytophthora infestans; in assay [1]) was at least 60% in each case. Moreover, in the assay with Septoria tritici, the inhibition of growth at 60 ppm was at least 60%. The inhibition of growth at 20 ppm with Pythium ultimum is at least 60%.
With `CSC(Oc1cc2cc(C#C[Si](C)(C)C)cnc2c(F)c1F)C(=O)NC(C)(C)C` (centres unmarked) [Example 217], the inhibition of growth at 60 ppm in the assay with Septoria tritici was at least 60%.
With `COCOCC(C)(C)NC(=O)C(Oc1cc(C)c2ncc(C#C[Si](C)(C)C)cc2c1)SC` (centres unmarked) [Example 60], in the assay with Septoria tritici, the inhibition of growth at 60 ppm is at least 60%.
`COCC#CC(C)(C)NC(=O)C(Oc1cc2cc(C#C[Si](C)(C)C)cnc2cc1F)SC` (centres unmarked) [Example 58]: in assay [1], the pest or weed control at 200 ppm was at least 60%. Also, in the assay on Septoria tritici, the inhibition of growth at 60 ppm is at least 60%.
For `C#Cc1cnc2ccc(OC(SC)C(=O)NC3(C=O)CCC3)cc2c1` (centres unmarked) [Example 150], the pest or weed control at 200 ppm (with Phytophthora infestans; with Plasmopara viticola; in assay [1]; in the assay on Septoria nodorum) was at least 60% in each case.
Take `COC(Oc1ccc2ncc(C#C[Si](C)(C)C)cc2c1)C(=O)NC(C)(C)C` (centres unmarked) [Example 80]: the pest or weed control at 200 ppm (in the assay on Phytophthora infestans; with Plasmopara viticola; in assay [1]) was at least 60% each time. For the same molecule, in the assay with Septoria tritici, the inhibition of growth at 60 ppm is at least 60%.
Take `CC#Cc1cnc2c(C)cc(OC(SC)C(=O)NC(C)(C)C#CCOC)cc2c1` (centres unmarked) [Example 39]: the pest or weed control at 200 ppm in the assay on Phytophthora infestans and in the assay on Plasmopara viticola was at least 60% throughout. The inhibition of growth at 60 ppm in the assay with Septoria tritici was at least 60%.
Turning to `CSCC(C)(C#N)NC(=O)C(Oc1ccc2ncc(C#C[Si](C)(C)C)cc2c1)SC` (centres unmarked) [Example 59], the pest or weed control at 200 ppm in the assay on Phytophthora infestans is at least 60%. Besides, the inhibition of growth at 60 ppm with Septoria tritici is at least 60%.
On to `C#Cc1cnc2ccc(OC(OC)C(=O)NC(C)(C)CO)cc2c1` (centres unmarked) [Example 220], for which the pest or weed control at 200 ppm (in the assay on Phytophthora infestans; in the assay with Plasmopara viticola; in assay [1]) was at least 60% throughout. The inhibition of growth at 60 ppm in the assay with Septoria tritici was at least 60%. The inhibition of growth at 20 ppm in the assay on Pythium ultimum is at least 60%.
On to `C#Cc1cnc2ccc(OC(OC)C(=O)NC(C)(C)C=O)cc2c1` (centres unmarked) [Example 221], for which the pest or weed control at 200 ppm (in the assay on Phytophthora infestans; with Plasmopara viticola; in assay [1]) was at least 60% throughout. Also, the inhibition of growth at 60 ppm in the assay on Septoria tritici was at least 60%. Besides, in the assay with Pythium ultimum, the inhibition of growth at 20 ppm was at least 60%.
As to `C#CC(C)(C)NC(=O)C(Oc1cc(C)c2ncc(C#CCOC)cc2c1)SC` (centres unmarked) [Example 36], the inhibition of growth at 60 ppm in the assay with Septoria tritici is at least 60%. The inhibition of growth at 20 ppm in the assay with Pythium ultimum was at least 60%.
